The text below walks through data of patent US20110092488A1, “Quninoline Methanol Compounds for the Treatment and Prevention of Parasitic Infections” (priority 2005, published 2011).

Series [1] deals with primary rat forebrain neurons. The series can be described thus: Neurocytotoxicity assay (MTT). As to the method:
The neurocytotoxicity assay of AAQMs was conducted as per Dow et al.; The antimalarial potential of 4-quinolinecarbinolamines may be limited due to neurotoxicity and cross-resistance in mefloquine-resistant Plasmodium falciparum strains; Chemother. (48) 2624-2632 (2004) and is incorporated herein, by reference. This assay utilizes primary rat forebrain neurons and is a multi-endpoint screen. […] The AAQMs outlined in Table 1 were screened at 10, 100 and 1000 μM in triplicate, and the reduction in viability observed was determined using the 3-(4,5-dimethylthiazol-2-yl)-2,5-diphenyltetrazolium bromide (MTT) assay as per Dow et al., discussed above. Approximate IC50 values were calculated on the basis of the level of inhibition observed at each concentration. Full dose response assays were run for mefloquine and WR069878 with two fold dilutions (n=6 wells per dilution) and 11 dilutions for each drug. IC50s were calculated using Prism. Each time the assay is conducted, 20 μM mefloquine is included, as a control. […] Assays are re-run if the loss of viability induced by mefloquine is <40% or >60%. Neuroprotection experiments with 6,7-dinitroquinoxaline-2,3-dione (DNQX) and magnesium were performed as per Dow et al.; Transcriptional profiling of mefloquine-induced disruption of calcium homeostasis in neurons in vitro; Genomics (86)539-550 (2005), which is incorporated by reference, herein. Neurons were exposed to DNQX (100 μM) or magnesium (12 mM) for 5 min, followed by mefloquine (25 μM) or WR069878 (250 μM) for 20 min after which reduction in cell viability was determined. […] DNQX is an inhibitor of non-N-methyl-D-aspartate (NMDA) receptors, whilst magnesium inhibits the functioning of the inositol 1,4,5-trisphosphate (IP3)-mediated calcium signaling pathway at several points. The effects of mefloquine and WR069878 on neuronal calcium homeostasis were assessed utilizing confocal microscopy as per Dow et al, as discussed in Antimicrob Agents Chemother. (48)2624-2632 (2004), cited above, and incorporated by reference, herein. Briefly neurons were loaded with calcium sensitive dye Fluo 3-A for 1 h and were washed prior to image experiments. Neurons were ‘spiked’ with 100 μM mefloquine or WR069878. Subsequent changes in neuronal calcium homeostasis were recorded as fluctuations in the emitted fluorescence of fluo-3-complexed calcium at 530 nm (excitation was 488 nm). Sequential image scans of fields containing 5-25 neurons were used to construct temporal profiles. Scans were made at 10 s intervals. Fluorescence levels for each neuron were normalized 12 to time zero values. Data were then pooled from three and five independent experiments for mefloquine and WR069878 respectively.

The test system of the next series is AMRU1 strain of P. vivax. The series can be described thus: Efficacy in P. vivax-challenged Aotus monkeys. In kind it is in vivo, Plasmodium vivax in Aotus lemurinus lemurinus. Conditions: oral; for Outcome: Aotus. As to the method: The P. berghei-mouse efficacy data were obtained from the WRAIR chemical information system (subcutaneous testing) or from recent tests conducted at AFRIMS, Thailand or at the University of Miami using a modified version of the Thompson test. Groups of five mice were inoculated through i.p. injection on day 0 (usually with 1×106 P. berghei-parasitized erythrocytes). The drugs in Table 1 were administered either subcutaneously or orally for three days (usually on days 3-5) at doses of 1.25-160 mg/kg in two to four fold increments. Cure was defined as survival until day 60 (subcutaneous dosing) or day 31 post-treatment (oral dosing). […] The minimum effective dose was the lowest dose level that cured at least one of five mice. The Aotus studies were performed according to Obaldia; Detection of Klebsiella pnuumoniae antibodies in Aotus l. lemurinus (Panamanian owl monkey) using an enzyme linked immunosorbent assay (ELIA) test; Lab Anim (25)133-141 (1991) and Obaldia et al., WR 238605, chloroquine, and their combinations as blood schizonticides against a chloroquine-resistant strain of Plasmodium vivax in Aotus monkeys; Am. J. Trop. Med. Hyg. (56)508-510 (1997), which are incorporated by reference, herein. Groups of two Aotus lemurinus 6 lemurinus of the karyotype VIII or IX (27) male and female monkeys with weights ranging from 742-970 g were inoculated with 5×10^6 parasites of either the FVO strain of P. falciparum or the AMRU1 strain of P. vivax. Both of these strains are chloroquine resistant. […] Monkeys were examined and thick Giemsa-stained blood smears were prepared and enumerated daily (17) to monitor the course of infection. […] In some instances, a high dose of the test drug was used to retreat monkeys instead of the mefloquine rescue. Monkeys are considered cured if they are parasite free 90 days post treatment. […] Plasma samples were taken from the monkeys in some studies for quantification of metabolites. Additional blood samples were taken as appropriate for complete blood counts and serum chemistry. Research was conducted in compliance with the Animal Welfare Act and other federal statutes and regulations relating to animals and experiments involving animals and adheres to principles stated in the Guide for the Care and Use of Laboratory Animals, NRC Publication, 1996 edition (34).

For series [2] the following is noted: Aotus, 10 mg/kg/day oral x7.

Read-outs that look alike come from different tables or passages of the source.

As for `CCCCN(CCCC)CC(O)c1cc(-c2ccc(Cl)cc2)nc2cc(Cl)c(C)cc12` (centres unmarked) [WR069878], the IC50 in series [1] (read-out: Neurotoxicity IC50, full dose response, FIG. 2(a)) is 242 µM; in series [1] (read-out: Neurotoxicity ranking (IC50 in μM), approximate IC50 from screen at 10, 100 and 1000 μM, MTT), 200 µM. For the same compound, the Outcome entry in the series on AMRU1 strain of P. vivax (0.625 mg/kg/day x 3 days, primary treatment) was “Failure”; in the series with AMRU1 strain of P. vivax (2.5 mg/kg/day x 3 days, primary treatment), “Failure”; with AMRU1 strain of P. vivax (10 mg/kg/day x 3 days, primary treatment, number in brackets = days before recrudescence, 10 mg/kg/day), “Clear (7) and Cure”; with AMRU1 strain of P. vivax (20 mg/kg/day x 1 day, retreatment, one monkey per line, number in brackets = days before recrudescence, 20 mg/kg/day) it was “Cure and Clear (8)”; in the series with AMRU1 strain of P. vivax (40 mg/kg/day x 3 days, retreatment) it was “Cure”; in the series with AMRU1 strain of P. vivax (80 mg/kg/day x 1 day, retreatment, number in brackets = days before recrudescence, 80 mg/kg/day), “Clear (11) and Cure”. Moreover, the “Outcome in P. vivax infections” value with AMRU1 strain of P. vivax (three day regimen) is listed as “cures P. vivax infections”. The “Mean peak concentration” value in series [2] was 65 ng/mL. Further, the “Plasma conc on day 1 (ng/ml) 2 h” value in series [2] (day 1, 2 h) amounted to 38 ng/mL. Also, the “Plasma conc on day 1 (ng/ml) 24 h” value in series [2] (day 1, 24 h) stood at 16 ng/mL. Further, in series [2] (day 7, 2 h), the “Plasma conc. on day 7 (ng/ml) 2 h” value came to 91 ng/mL. In series [2] (day 7, 24 h), the “Plasma conc. on day 7 (ng/ml) 24 h” value was 40 ng/mL.

As usually defined, the IC50 is the midpoint of a concentration-inhibition curve.
